The target in the experiment is human autotaxin (ATX) (Homo sapiens (Human), UniProt Q13822). Kind of experiment: Human Autotaxin Assay. Format: biochemical. The conditions noted are these: concentrated conditioned media from Hep3B cells; LPC substrate, choline release. The method, then: ATX activity is assayed in concentrated conditioned media from Hep3B human hepatocellular carcinoma cells by measuring the amount of choline released from the substrate, lysophosphatidylcholine (LPC) as it is cleaved to LPA. Conditioned media is collected from confluent Hep3B cells and concentrated 20-fold using Centriprep-30 filter devices (Millipore). To assay for autotaxin inhibition, 10-20 μL of the concentrated conditioned media is incubated with 2.5 μL of a test compound in DMSO and 72.5-82.5 μL lyso-PLD buffer (100 mM Tris pH 9, 500 mM NaCl, 5 mM MgCl2, 5 mM CaCl2, 0.05% Triton X-100 in the presence or absence of 0.2% fatty-acid-free human serum albumin) for 15 min at 37° C. After the 15 min incubation, 5 uL of 2 mM LPC (14:0; Avanti Polar Lipids Cat#855575C) diluted in lyso-PLD buffer is added for a final concentration of 100 uM and the incubation continues for 1.5-3 hours at 37° C.

Broadly, the IC50 is the concentration needed to halve the response being measured. A lower IC50 goes with inhibition by little substance. `Cc1c(Sc2cccc(C(=O)O)c2)c2ccc(Cl)c(F)c2n1CC(=O)N1CC(N2CCS(=O)(=O)CC2)C1` [Compound 1-48, 3-((6-Chloro-1-(2-(3-(1,1-dioxidothiomorpholino)azetidin-1-yl)-2-oxoethyl)-7-fluoro-2-methyl-1H-indol-3-yl)thio)benzoic acid] registered an IC50 of at most 0.5 µM.
Regarding `Cc1c(Sc2cccc(C(=O)O)c2)c2ccc(Cl)c(F)c2n1CC(=O)N1CC(O)(C2CC2)C1` [Compound 1-82, 3-((6-Chloro-1-(2-(3-cyclopropyl-3-hydroxyazetidin-1-yl)-2-oxoethyl)-7-fluoro-2-methyl-1H-indol-3-yl)thio)benzoic acid], the IC50 was at most 0.5 µM.
With `Cc1c(Sc2cccc(C(=O)O)c2F)c2ccc(Cl)c(F)c2n1CC(=O)N1CC(CN(C)C)C1` [Compound 2-71, 3-((6-Chloro-1-(2-(3-((dimethylamino)methyl)azetidin-1-yl)-2-oxoethyl)-7-fluoro-2-methyl-1H-indol-3-yl)thio)-2-fluorobenzoic acid], the 50% inhibitory concentration (IC50) was at most 0.5 µM.
Take `Cc1c(Sc2cccc(C(=O)O)c2)c2ccc(Cl)c(F)c2n1CC(=O)N1CCC(Cc2cnn(C)c2)C1` (stereo not drawn) [Compound 1-93, 3-((6-Chloro-7-fluoro-2-methyl-1-(2-(3-((1-methyl-1H-pyrazol-4-yl)methyl)pyrrolidin-1-yl)-2-oxoethyl)-1H-indol-3-yl)thio)benzoic acid]: the half-maximal inhibitory concentration (IC50) is at most 0.5 µM.
With `Cc1c(Sc2cccc(C(=O)O)c2)c2ccc(Cl)c(F)c2n1CC(=O)NC1CCCCC1` [Compound 1-2, 3-((6-Chloro-1-(2-(cyclohexylamino)-2-oxoethyl)-7-fluoro-2-methyl-1H-indol-3-yl)thio)benzoic acid], the half-inhibitory concentration (IC50) was 0.5 to 3 µM.
Take `Cc1c(Sc2cccc(C(=O)O)c2)c2ccc(Cl)c(F)c2n1CC(=O)N1CCC(O)C1` (stereo not drawn) [Compound 1-90, 3-((6-Chloro-7-fluoro-1-(2-(3-hydroxypyrrolidin-1-yl)-2-oxoethyl)-2-methyl-1H-indol-3-yl)thio)benzoic acid]: the half-inhibitory concentration (IC50) was at most 0.5 µM.
Regarding `Cc1c(Sc2cccc(C(=O)O)c2)c2ccc(Cl)c(F)c2n1CC(=O)N1CCC(Cc2ccc(F)cc2)C1` (single isomer, unassigned; enantiomer b) [Compound 1-66, 3-((6-Chloro-7-fluoro-1-(2-(3-(4-fluorobenzyl)pyrrolidin-1-yl)-2-oxoethyl)-2-methyl-1H-indol-3-yl)thio)benzoic acid Enantiomer B], the IC50 is 0.5 to 3 µM.
For `Cc1c(Sc2cccc(C(=O)O)c2)c2ccc(Cl)c(F)c2n1CC(=O)N1CCCC(O)(C(F)(F)F)C1` (stereo not drawn) [Compound 1-83, 3-((6-Chloro-7-fluoro-1-(2-(3-hydroxy-3-(trifluoromethyl)piperidin-1-yl)-2-oxoethyl)-2-methyl-1H-indol-3-yl)thio)benzoic acid], the IC50 was at most 0.5 µM.
The molecule `Cc1c(Sc2cccc(C(=O)O)c2F)c2ccc(Cl)c(F)c2n1CCN1CC2(CC2)c2ccccc21` [Compound 2-74, Sodium 3-((6-chloro-7-fluoro-2-methyl-1-(2-(spiro[cyclopropane-1,3′-indolin]-1′-yl)ethyl)-1H-indol-3-yl)thio)-2-fluorobenzoate] came in with a concentration for half-maximal inhibition (IC50) of at most 0.5 µM.
`Cc1c(Sc2cccc(C(=O)O)c2)c2ccc(Cl)c(F)c2n1CC(=O)N1CCc2ccccc2C1` [Compound 1-79, 3-((6-Chloro-1-(2-(3,4-dihydroisoquinolin-2(1H)-yl)-2-oxoethyl)-7-fluoro-2-methyl-1H-indol-3-yl)thio)benzoic acid]: the IC50 is at most 0.5 µM.
Take `Cc1c(Sc2cccc(C(=O)O)c2)c2ccc(Cl)c(F)c2n1CC(=O)N1CC2(CC2)c2ccccc21` [Compound 1-31, 3-((6-Chloro-7-fluoro-2-methyl-1-(2-oxo-2-(spiro[cyclopropane-1,3′-indolin]-1′-yl)ethyl)-1H-indol-3-yl)thio)benzoic acid]: the IC50 is at most 0.5 µM.
In turn, `Cc1c(Sc2cccc(C(=O)O)c2)c2ccc(Cl)c(F)c2n1CC(=O)N1CCC(CCc2ccccc2)CC1` [Compound 1-62, 3-((6-Chloro-7-fluoro-2-methyl-1-(2-oxo-2-(4-phenethylpiperidin-1-yl)ethyl)-1H-indol-3-yl)thio)benzoic acid] displayed an IC50 of 0.5 to 3 µM.

These data come from patent US9850203B2, “Autotaxin inhibitor compounds” (PharmAkea, Inc., priority 2013, dated 2017).
